{"source": "patent US10787413B2", "about": "“Derivatives of curcuminoids and use thereof as an anticancer agent” (CHINA MEDICAL UNIVERSITY, priority 2016, dated 2020)", "key": {"[1]": {"tested_on": "T47D", "assay": "Cell viability, T47D breast cancer cells", "type": "cell-based", "conditions": "Homo sapiens; T47D (ER+/PR+), treated for 24 h", "protocol": "(§1) Cell viability was evaluated by measuring the reduction in MTT to yield blue formazan. Cells were cultured in 96-well plates, allowed to attach overnight, and then treated with compounds. After treatment, MTT solution (1 mg/ml) was added to each well, and plates were incubated for another 4 h. Medium were removed, blue formazan was dissolved in DMSO, and the absorbance was read at 570 nm^20."}, "[2]": {"tested_on": "MDA-MB-157", "assay": "Cell viability, MDA-MB-157 breast cancer cells", "type": "cell-based", "conditions": "Homo sapiens; MDA-MB-157 (Triple negative), treated for 24 h", "protocol": "as §1"}, "[3]": {"tested_on": "MDA-MB-231 cells", "assay": "Cell morphology, phase-contrast microscope", "type": "cell-based, human", "conditions": "10 μM, 24 h", "source_text": "For morphological observations, cells were visualized and photographed using a phase-contrast microscope equipped with a digital camera (Leica Microsystems, Wetzlar, Germany)^21."}, "[4]": {"tested_on": "MDA-MB-231 cells", "assay": "Immunofluorescence staining LC3B and p62", "type": "cell-based, human", "conditions": "5 μM and 10 μM, 24 h", "protocol": "Cells were grown on sterile coverslips placed in a 6-well plate. After treatments, cells were fixed with 4% (w/v) paraformaldehyde and permeabilized with 0.2% (v/v) Triton X-100 in PBS. After blocking with 2% (w/v) bovine serum albumin in PBS, […] was detected using anti-LC3B and anti-p62 antibody followed by reaction with FITC or PE-conjugated secondary antibody (BD Biosciences). Coverslips were mounted on glass slides with Prolong Gold Antifade Reagent containing DAPI (Invitrogen), and fluorescence images were taken on a Leica Microsystems TCS SP2 Confocal Spectral microscope^26."}, "[5]": {"tested_on": "MDA-MB-231 cells", "assay": "cDNA microarray", "type": "cell-based, human", "protocol": "The cells were incubated with or without 21a. After exposure, cell pellets were collected, and the total RNA from each treatment was purified using the Qiagen RNeasy Mini Kit (Qiagen, Valencia, Calif., USA). The RNA purity was determined to check the quality at 260/280 nm using a NanoDrop 1000 Spectrophotometer (Thermo Fisher Scientific, Wilmington, Del., USA). mRNA was amplified and labeled using the Gene-Chip WT Sense Target Labeling and Control Reagents kit (Affymetrix, Santa Clara, Calif., USA) for expression analysis. The synthesized cDNA was labeled with fluorescence and then hybridized for 17 h using AffymetrixGeneChip Human Gene 1.0 ST array (Affymetrix) to determine microarray hybridization following the manufacturer's protocols. The arrays were subsequently washed using Fluidics Station 450 (Affymetrix), stained with streptavidin-phycoerythrin (Gene-Chip Hybridization, Wash, and Stain kit, Affymetrix), and scanned on a GeneChip Scanner 3000 (Affymetrix). The localized concentrations of fluorescent molecules were quantitated and analyzed using Expression Console Software (Affymetrix) with default RMA parameters as previously described (Chang et al. 2012; Liu et al. 2013). […]"}}}
{"smiles": "COc1cc(/C=C/C(=O)/C=C(O)/C=C/c2ccc(OC(=O)C(C)(CO)CO)c(OC)c2)ccc1OC(=O)C(C)(CO)CO", "note": "[Compound 21a, ((1E,3Z,6E)-3-Hydroxy-5-oxohepta-1,3,6-triene-1,7-diyl)bis(2-methoxy-4,1-phenylene) bis(3-hydroxy-2-(hydroxymethyl)-2-methylpropenoate)]", "values": [{"measurement": "IC50", "setting": "[1]", "value": "19.3 ± 1.71", "unit": "µM"}, {"measurement": "IC50", "setting": "[2]", "value": "9.23 ± 0.11", "unit": "µM"}, {"measurement": "cell morphology", "setting": "[3]", "value": "caused breast cancer cell apoptosis and autophagy"}, {"measurement": "LC3B-positive and p62-positive cells", "setting": "[4]", "value": "significantly increased"}, {"measurement": "genes down-regulated", "setting": "[5]; at least 2.5 folds", "value": 28, "unit": "genes"}, {"measurement": "genes up-regulated", "setting": "[5]; at least 2.5 folds", "value": 69, "unit": "genes"}, {"measurement": "log2 (Ratio) ATF3", "setting": "[5]; mRNA, MDA-MB-231 cells, 24-h treatment, ID PH_hs_0000057", "value": 3.698}, {"measurement": "log2 (Ratio) IL12A", "setting": "[5]; mRNA, MDA-MB-231 cells, 24-h treatment, ID PH_hs_0000076", "value": 4.587}, {"measurement": "log2 (Ratio) DUSP2", "setting": "[5]; mRNA, MDA-MB-231 cells, 24-h treatment, ID PH_hs_0000156", "value": 4.094}, {"measurement": "log2 (Ratio) SRGN", "setting": "[5]; mRNA, MDA-MB-231 cells, 24-h treatment, ID PH_hs_0000255", "value": 2.917}, {"measurement": "log2 (Ratio) MMP10", "setting": "[5]; mRNA, MDA-MB-231 cells, 24-h treatment, ID PH_hs_0000305", "value": 4.942}, {"measurement": "log2 (Ratio) SLC25A25", "setting": "[5]; mRNA, MDA-MB-231 cells, 24-h treatment, ID PH_hs_0000566", "value": 2.529}, {"measurement": "log2 (Ratio) DNAJB9", "setting": "[5]; mRNA, MDA-MB-231 cells, 24-h treatment, ID PH_hs_0000684", "value": 3.854}, {"measurement": "log2 (Ratio) RND3", "setting": "[5]; mRNA, MDA-MB-231 cells, 24-h treatment, ID PH_hs_0000694", "value": 2.626}, {"measurement": "log2 (Ratio) SESN2", "setting": "[5]; mRNA, MDA-MB-231 cells, 24-h treatment, ID PH_hs_0000852", "value": 3.324}, {"measurement": "log2 (Ratio) OMA1", "setting": "[5]; mRNA, MDA-MB-231 cells, 24-h treatment, ID PH_hs_0000866", "value": "−2.613"}, {"measurement": "log2 (Ratio) SENP5", "setting": "[5]; mRNA, MDA-MB-231 cells, 24-h treatment, ID PH_hs_0001262", "value": 2.748}, {"measurement": "log2 (Ratio) SAT1", "setting": "[5]; mRNA, MDA-MB-231 cells, 24-h treatment, ID PH_hs_0002492", "value": 3.366}, {"measurement": "log2 (Ratio) OSGEN1", "setting": "[5]; mRNA, MDA-MB-231 cells, 24-h treatment, ID PH_hs_0002700", "value": 3.513}, {"measurement": "log2 (Ratio) C18orf25", "setting": "[5]; mRNA, MDA-MB-231 cells, 24-h treatment, ID PH_hs_0002812", "value": 2.668}, {"measurement": "log2 (Ratio) ZNF77", "setting": "[5]; mRNA, MDA-MB-231 cells, 24-h treatment, ID PH_hs_0002971", "value": 2.665}, {"measurement": "log2 (Ratio) PDGFC", "setting": "[5]; mRNA, MDA-MB-231 cells, 24-h treatment, ID PH_hs_0003147", "value": "−2.534"}, {"measurement": "log2 (Ratio) SMIM13", "setting": "[5]; mRNA, MDA-MB-231 cells, 24-h treatment, ID PH_hs_0003180", "value": 2.646}, {"measurement": "log2 (Ratio) PPP1R15A", "setting": "[5]; mRNA, MDA-MB-231 cells, 24-h treatment, ID PH_hs_0004421", "value": 5.381}, {"measurement": "log2 (Ratio) GEM", "setting": "[5]; mRNA, MDA-MB-231 cells, 24-h treatment, ID PH_hs_0004561", "value": 3.997}, {"measurement": "log2 (Ratio) MMP1", "setting": "[5]; mRNA, MDA-MB-231 cells, 24-h treatment, ID PH_hs_0004751", "value": 3.219}, {"measurement": "log2 (Ratio) LMNB1", "setting": "[5]; mRNA, MDA-MB-231 cells, 24-h treatment, ID PH_hs_0004988", "value": "−2.878"}, {"measurement": "log2 (Ratio) ZFAND2A", "setting": "[5]; mRNA, MDA-MB-231 cells, 24-h treatment, ID PH_hs_0006387", "value": 6.274}, {"measurement": "log2 (Ratio) F2R", "setting": "[5]; mRNA, MDA-MB-231 cells, 24-h treatment, ID PH_hs_0007383", "value": "−2.717"}, {"measurement": "log2 (Ratio) TOP2A", "setting": "[5]; mRNA, MDA-MB-231 cells, 24-h treatment, ID PH_hs_0009437", "value": "−3.052"}, {"measurement": "log2 (Ratio) DUSP1", "setting": "[5]; mRNA, MDA-MB-231 cells, 24-h treatment, ID PH_hs_0010276", "value": 4.189}, {"measurement": "log2 (Ratio) TXNIP|LOC101060503", "setting": "[5]; mRNA, MDA-MB-231 cells, 24-h treatment, ID PH_hs_0010634", "value": "−2.66"}, {"measurement": "log2 (Ratio) H1F0", "setting": "[5]; mRNA, MDA-MB-231 cells, 24-h treatment, ID PH_hs_0012629", "value": "−2.89"}, {"measurement": "log2 (Ratio) BRF2", "setting": "[5]; mRNA, MDA-MB-231 cells, 24-h treatment, ID PH_hs_0014119", "value": 2.572}, {"measurement": "log2 (Ratio) HSPA1B", "setting": "[5]; mRNA, MDA-MB-231 cells, 24-h treatment, ID PH_hs_0014155", "value": 2.836}, {"measurement": "log2 (Ratio) METTL7A", "setting": "[5]; mRNA, MDA-MB-231 cells, 24-h treatment, ID PH_hs_0014995", "value": "−3.653"}, {"measurement": "log2 (Ratio) CLK1", "setting": "[5]; mRNA, MDA-MB-231 cells, 24-h treatment, ID PH_hs_0020147", "value": 2.804}, {"measurement": "log2 (Ratio) DNAJC3", "setting": "[5]; mRNA, MDA-MB-231 cells, 24-h treatment, ID PH_hs_0021974", "value": 3.011}, {"measurement": "log2 (Ratio) CLCF1", "setting": "[5]; mRNA, MDA-MB-231 cells, 24-h treatment, ID PH_hs_0022919", "value": 2.961}, {"measurement": "log2 (Ratio) FRS2", "setting": "[5]; mRNA, MDA-MB-231 cells, 24-h treatment, ID PH_hs_0023008", "value": 3.242}, {"measurement": "log2 (Ratio) C21orf91", "setting": "[5]; mRNA, MDA-MB-231 cells, 24-h treatment, ID PH_hs_0023556", "value": 2.733}, {"measurement": "log2 (Ratio) HSPA5", "setting": "[5]; mRNA, MDA-MB-231 cells, 24-h treatment, ID PH_hs_0023711", "value": 2.599}, {"measurement": "log2 (Ratio) BBS2", "setting": "[5]; mRNA, MDA-MB-231 cells, 24-h treatment, ID PH_hs_0023845", "value": "−3.269"}, {"measurement": "log2 (Ratio) CBY1", "setting": "[5]; mRNA, MDA-MB-231 cells, 24-h treatment, ID PH_hs_0023862", "value": "−2.551"}, {"measurement": "log2 (Ratio) TRIB3", "setting": "[5]; mRNA, MDA-MB-231 cells, 24-h treatment, ID PH_hs_0023894", "value": 2.584}, {"measurement": "log2 (Ratio) CDKN1A", "setting": "[5]; mRNA, MDA-MB-231 cells, 24-h treatment, ID PH_hs_0024155", "value": 2.904}, {"measurement": "log2 (Ratio) ATP2A2", "setting": "[5]; mRNA, MDA-MB-231 cells, 24-h treatment, ID PH_hs_0024236", "value": 2.548}, {"measurement": "log2 (Ratio) DNAJB4", "setting": "[5]; mRNA, MDA-MB-231 cells, 24-h treatment, ID PH_hs_0024315", "value": 3.075}, {"measurement": "log2 (Ratio) C3orf52", "setting": "[5]; mRNA, MDA-MB-231 cells, 24-h treatment, ID PH_hs_0025319", "value": 3.562}, {"measurement": "log2 (Ratio) CLU", "setting": "[5]; mRNA, MDA-MB-231 cells, 24-h treatment, ID PH_hs_0025525", "value": 3.198}, {"measurement": "log2 (Ratio) CTDSP1", "setting": "[5]; mRNA, MDA-MB-231 cells, 24-h treatment, ID PH_hs_0025966", "value": "−2.552"}]}
